Patent US20120322768A1, “COMPOUNDS, COMPOSITIONS AND METHODS FOR TREATING PROTOZOAN INFECTIONS” (QUEEN MARY & WESTFIELD COLLEGE, priority 2009, published 2012)
Like-named read-outs stand apart in the source and are kept apart here.

B1: T. brucei NTR (TbNTR) (Trypanosoma brucei brucei TREU927) (protein)
chain: DAFIRVVERRHSSKRFDSSRPVDHTLIARLLEATTRAPTAFNLQPWVAIVVHETSQRGALSHAALDQPQPREAPVTVVFAGDMEPEWRAPAALELGLNSGYYHPLYGAAYLRLVYYHLHGGPFGSMAKAKSCISSWYSNATGTPLLSVPTTMQGYAWKQAMIPATTFIYAATAAGLDTAILEGFDEAKVREVVGLPERYTVPVIISVGYKKADEQGKPPVRSPRFSTGSLVRWNRF

What was measured:
[1] = tested on: bloodstream form T. brucei; assay: microbe, parasite or virus in culture; assay type: cell-based; conditions: Trypanosoma brucei
THP-1 cells = assay: cells; conditions: Homo sapiens, THP-1, 144 h, read-out: IC50 THP1
[2] = tested on: insect form Leishmania major; assay: microbe, parasite or virus in culture; assay type: cell-based; conditions: 144 h, read-out: IC50 L. major
[3] = tested on: intracellular form T. cruzi; assay: microbe, parasite or virus in culture; assay type: cell-based; conditions: Trypanosoma cruzi, Vero, 72 h, read-out: IC50 T. cruzi
Vero cells = assay: cells; assay type: cell-based; conditions: Chlorocebus sabaeus, read-out: IC50 Vero cells
[4] = Stability in phosphate buffer (HPLC); assay type: physicochemical; conditions: pH 7.4, 100 mM phosphate buffer, three-day incubation at 37° C., 100 μM
Method: (§1) Select nitrobenzyl phosphoramide mustards (100 μM) were incubated in pH 7.4 100 mM phosphate buffer or in whole human blood at 37° C. Aliquots were withdrawn at different time intervals and mixed with acetonitrile (1-1 for phosphate buffer and 1-5 for whole blood). The samples were centrifuged and analyzed by HPLC.

[5] = Stability in whole human blood (HPLC); assay type: in vitro ADME; conditions: three-day incubation at 37° C., 100 μM
Method: as §1

[6] = substrate: CC1CS(=O)(=O)CCN1/N=C/c1ccc([N+](=O)[O-])o1; assay: TbNTR enzyme activity by NADH oxidation (absorbance at 340 nm); assay type: biochemical, T. brucei; conditions: other: apparent; NADH 100 μM, substrate 2-75 μM
Method: Enzyme activity was measured by following the change in absorbance at 340 nm due to NADH oxidation (34, 35). A reaction mixture (1 ml) containing 50 mM Tris-Cl pH 7.0, 100 μM NADH and NBPM (Tables 1 and 2) was incubated at room temperature for 5 min. The background rate of NADH oxidation was determined and the reaction initiated by the addition of 20 μg TbNTR. The enzyme activity was calculated using c of 6,220 M^−1 cm^−1. The absorbance spectrum (320-600 nm) for each NBPM was determined before.

[7] = 72 h, read-out: IC50 T. bruccei
[8] = read-out: IC50 against bloodstream form T. brucei

| Molecule | IC50 [1, 7] | IC50 (THP-1 cells) | IC50 [1, 8] | IC50 [2] | IC50 [3] | IC50 (Vero cells) | further results |
| --- | --- | --- | --- | --- | --- | --- | --- |
| NP(=O)(OCc1ccc([N+](=O)[O-])cc1)N(CCCl)CCCl (centres unmarked) [LH7] | 3.4 ± 0.3 µM | 66 ± 0.8 µM |  |  |  |  |  |
| NP(=O)(OCc1ccc([N+](=O)[O-])cc1F)N(CCCl)CCCl (centres unmarked) [LH32, 2-Fluoro-4-nitrobenzyl phosphoramide mustard] | 0.268 ± 0.008 µM | 20.3 ± 1.8 µM | 0.268 ± 0.008 µM | 4.72 ± 0.23 µM | 9.54 ± 0.27 µM | > 100 µM |  |
| NP(=O)(OCc1ccc([N+](=O)[O-])cc1C(F)(F)F)N(CCCl)CCCl (centres unmarked) [LH33, 2-Trifluoromethyl-4-nitrobenzyl phosphoramide mustard] | 0.149 ± 0.02 µM | 19 ± 1.9 µM | 0.149 ± 0.02 µM | 5.88 ± 0.28 µM | 7.97 ± 1.13 µM | > 100 µM |  |
| NP(=O)(OCc1ccc([N+](=O)[O-])cc1Cl)N(CCCl)CCCl (centres unmarked) [LH34, 2-Chloro-4-nitrobenzyl phosphoramide mustard] | 0.008 ± 0.001 µM | 10 ± 1.2 µM | < 0.01 µM | 3.1 ± 0.28 µM | 9.14 ± 0.54 µM | > 100 µM | Stability in phosphate buffer [4]: stable; change in peak area in whole human blood [5]: less than 30% |
| NP(=O)(OCc1c(F)cc([N+](=O)[O-])cc1F)N(CCCl)CCCl (centres unmarked) [LH37, 2,6-Difluoro-4-nitrobenzyl phosphoramide mustard] | 0.007 µM | 6.9 µM | < 0.01 µM | 1.29 ± 0.08 µM | 0.99 ± 0.01 µM | > 100 µM | Stability in phosphate buffer [4]: completely stable; Stability in human whole blood [5]: completely stable |
| CC1CS(=O)(=O)CCN1/N=C/c1ccc([N+](=O)[O-])o1 (centres unmarked) [Nifurtimox, reference compound] |  | 64.8 ± 1.5 µM |  |  |  |  |  |
| Nc1nc(N)nc(Nc2ccc([As]3SCC(CO)S3)cc2)n1 (centres unmarked) [melarsoprol, reference compound] |  |  |  |  |  |  | IC50 ([1]; read-out: drug sensitivity (IC50)): ~4 µM |
| B1 |  |  |  |  |  |  | Km [6]: 53.1 ± 15.2 µM; Vmax [6]: 0.423 µmol/min/mg; kcat/Km [6]: 3400 M⁻¹ s⁻¹ |
